In US20260101916A1, “SWEETENED FIBER AND METHODS THEREOF” (ZeroIN Foods Inc., priority 2022, published 2026):

Legend:
Type in all cases: in vivo, human
[1] = Comparative sensory study: sweetened fiber vs mixture of sweetener and fiber vs sweetener alone (Example 8); conditions: 9-point hedonic scale, 10% in water, N=12, FIG. 6
Procedure: The sensory characteristics of the sweetened fiber of the present disclosure were evaluated against a simple mixture of dietary fiber and stevia extract or stevia extract alone. The preference towards the sweetened fiber of the present disclosure, a mixture of dietary fiber and stevia extract, or stevia extract alone was determined. Any sensory difference between the sweetened fiber of the present disclosure versus a mixture of dietary fiber and stevia extract was evaluated.
Study design: randomized crossover. Twelve adults were recruited for the study. Samples were evaluated for pleasantness using 9-point hedonic scales (Peryam, D. R., Girardot, N. F. (1952). Advanced taste test method. Food Engineering, 24, 58-61, 194.). Unstructured scales such as visual analogue scales (VAS) are also used for the sensory evaluation of food (Baten, W. D. (1946). Organoleptic tests pertaining to apples and pears. Journal of Food Science, 11, 84-94.). The intensity of off-taste, bitterness and sweet aftertaste sweetness were determined using a 10-point scale. […]
Data analysis: The normality of the data was evaluated using D'Agostino & Pearson omnibus normality test. If the data didn't follow a normal distribution, the statistical significance of preference and intensity was assessed with the Kruskal-Wallis test using an alpha criterion of 5%. […]

[2] = Sensory evaluation: sucrose vs sweetened fiber vs stevia extract (Example 9); conditions: score 1 to 100; 10% sucrose, 10% sweet fiber, 0.05% RebM; FIG. 7
Procedure: A sensory evaluation session was conducted at BioFoodTech, to determine the taste difference between sucrose, the sweetened fiber of the present disclosure and stevia extract solutions. A group of twelve panelists formed a panel for the sensory evaluation. The ranking test measured the overall difference and intensity score for sensory attributes, including the strength of flavor, bitterness, liquorice taste and off-flavor.
A group of experienced panelists from BioFoodTech formed a panel for a sensory evaluation session to determine the quality difference between the sweet product samples.
Three 250 mL samples were prepared (10% solutions of sucrose, 10% the sweetened fiber of the present disclosure and 0.05% solution of Rebaudioside M (RebM). A sensory code consisting of a random 3-digit number was assigned to each sample.
Twelve experienced panelists were divided into two groups. A complete block design was chosen for the sensory evaluation of the […], including a ranking test used to determine the overall difference and intensity scoring for four […] attributes (strength of flavor, bitterness, liquorice taste and off-flavor). The four coded samples were presented to each panelist in a balanced order throughout the evaluation.
In the individual attributes evaluation, the panelists were asked to quantify the difference of specific attributes among the four samples by scoring from 1 to 100 (1 for none and 100 for the strongest, see FIG. 7) to reflect the intensity of the attribute best.

[3] = Sensory testing by a panel of twelve tasters (Example 4); conditions: 10% solution
Procedure: The taste of the sweetened fiber of the present disclosure prepared according to Example 1 was assessed by an external third party using a panel of tasters. A group of twelve panelists formed a panel for the sensory evaluation. The ranking test was used to measure the overall difference and intensity score for four sensory attributes, flavor, aftertaste, and mouthfeel. Each panelist evaluated all four samples. […] Sample Preparation: Two 250 mL samples were prepared (10% solutions of sucrose (control) and corn sweetened fiber of Example 1-1. A sensory code consisting of a random 3-digit number was assigned to each sample. Taste Session: The sensory evaluation was carried out at BioFoodTech's Sensory Lab. Twelve experienced panelists were divided into two groups. A complete block design was chosen for the sensory evaluation of the four samples, including a ranking test used to determine the overall difference. Statistical Analysis for the Data: For the individual attributes, Analysis of Variance (ANOVA) and the Tukey-Kramer HSD test were used to analyze the difference among sample means of individual attributes at a 5% significance level. For the Ranking test, a Friedman-type statistic was used to determine if there was a statistically significant difference among samples at a 5% significance level. All statistical analyses were done using the JMP®8 (SAS Institute Inc., Cary, NC).

[4] = Double-blinded randomized crossover sensory study: sweetened fiber vs sucrose (Example 10); conditions: 10% solution
Procedure: The sensory characteristics of an example of the sweetened fiber of the present disclosure were evaluated and compared to those of sucrose. Any preference towards the exemplary sweetened fiber of the present disclosure or sucrose solutions was determined. The sensory acceptance of the exemplary sweetened fiber of the present disclosure and sucrose was evaluated. Study design: double-blinded, randomized crossover. Sixty adults (18-65 years old, 30 males and 30 females) were recruited for the study. […] Samples were evaluated for pleasantness, taste, flavour, sweetness, and mouthfeel using 9-point hedonic scales ([…]. (1952). Advanced taste test method. Food Engineering, 24, 58-61, 194). […] The intensity of sweetness, bitterness, and metallic taste was determined using a 100 mm Visual Analogue Scale (VAS). […] Data analysis: The preference towards either blinded samples of 10% solution of Sucrose or 10% solution of the exemplary sweetened fiber of the present disclosure was determined with a forced paired preference test ([…]., Heymann, H. (2010). Sensory evaluation of food. Springer, New York, NY.). […] If there was an effect of sex (P≤0.05), the data was analyzed separately for males and females. If there was no effect of sex (P>0.05), the pooled data for males and females was analyzed with the Friedman test followed by Dunn's multiple comparisons. […]

SMILES: C=C1C[C@@]23CC[C@H]4[C@@](C)(CCC[C@@]4(C)C(=O)O[C@@H]4O[C@H](CO)[C@@H](O)[C@H](O[C@@H]5O[C@H](CO)[C@@H](O)[C@H](O)[C@H]5O)[C@H]4O[C@@H]4O[C@H](CO)[C@@H](O)[C@H](O)[C@H]4O)[C@@H]2CC[C@]1(O[C@@H]1O[C@H](CO)[C@@H](O)[C@H](O[C@@H]2O[C@H](CO)[C@@H](O)[C@H](O)[C@H]2O)[C@H]1O[C@@H]1O[C@H](CO)[C@@H](O)[C@H](O)[C@H]1O)C3 [Rebaudioside M]
- Pleasantness [1]: no differences
- Mean score, bitterness [2]: highest
- Mean score, liquorice taste [2]: highest
- Mean score, off-flavor [2]: highest
- Mean score, strength of flavor [2]: highest

SMILES: OC[C@H]1O[C@@](CO)(O[C@H]2O[C@H](CO)[C@@H](O)[C@H](O)[C@H]2O)[C@@H](O)[C@@H]1O [sucrose]
- Rank mean (ranking taste preference) [3]: 2.58
- RankSum (ranking taste preference) [3]: 31
- Mouthfeel ([3]; n = 12): 73%
- Off-flavour ([3]; n = 12): 0%
- Sweetness ([3]; n = 12): 100%
- Taste preference ([3]; n = 12): 98%
- Mean acceptance values on hedonic scales [4]: neutral or above the neutral
